According to US11518742B2 (priority 2020, dated 2022):

Columns and labels:
[1] = Dynamic Vapour Sorption (DVS); assay type: physicochemical
Method: A modified DVS isotherm of lot 20/45/006-FP (the same crystalline version) was undertaken to examine material behaviour from 60% RH and above. […] This is to obtain in-depth profiling of the material towards humidity at these elevated levels.
Temperature and humidity are important factors in the processing and storage of pharmaceuticals. DVS provides a versatile and sensitive technique for evaluating the stability of pharmaceutical formulations.
The solution was clarified into a 500 ml round bottom flask, the round bottom flask was rotated in an acetone/dry ice bath to freeze the solution in a thin layer around the flask. The ice was sublimed in vacuo at ambient temperature affording a fluffy white solid. The solid was removed from the round bottom flask and transferred to the DVS instrument. During this transfer, the solid collapsed to a sticky gum.
The sample was examined by DVS from 40% RH and cycled between 0% RH and 90% RH twice.
XRPD was collected on a portion of the sample post-lyophoilisation and post-DVS examination.

[2] = Generation of amorphous 5MeODMT benzoate and conversion on standing (XRPD, DSC); assay type: physicochemical; details: on standing / all conditions studied
Method: The flask was transferred to a vacuum and equilibrated to ambient temperature affording a fluffy white solid, 21-01-051 C.
The solid transformed into gum over ca. 1 hour. The sample was analysed immediately and after 20 hours held in a sealed container.

COc1ccc2[nH]cc(CCN(C)C)c2c1.O=C(O)c1ccccc1 [Amorphous 5MeODMT benzoate]
Solid form after DVS examination (XRPD) ([1]; amorphous input, after DVS at 90% RH): concordant with Pattern A | Initial weight reduction ([1]; amorphous lot 21-01-078, first desorption cycle): ca. 1.4% | Weight increase ([1]; amorphous lot 21-01-078, second sorption, between 50% RH and 90% RH): 0.2% | Weight loss ([1]; amorphous, DVS examination): ca. 2% | Stability of the amorphous form [2]: unstable and undergoes transformation to Pattern A form under all conditions studied | Stability of the amorphous form ([2]; listed as amorphous 5MeODMT benzoate): will convert to Pattern A form material on standing
